US12569453B2, “Use of tapinarof for the treatment of atopic dermatitis” (Dermavant Sciences GmbH, priority 2018, dated 2026)

Tested on: adolescent and adult subjects with AD
Assay: Phase II AD study: safety and tolerability
Assay type: in vivo, human
Procedure: Safety was assessed by the monitoring and recording of all AEs and serious adverse events (SAEs); evaluation of local (application site) tolerability; monitoring of hematology (including peripheral blood immunophenotyping and immunoglobulins), clinical chemistry, and vital signs; and the performance of ECGs and physical examinations.

[1] = Japanese subjects, pooled active (n=30)
[2] = adolescent subjects, pooled active (n=49)
[3] = adult subjects, pooled active (n=116)
[4] = pooled active treatment groups (n=165)

CC(C)c1c(O)cc(/C=C/c2ccccc2)cc1O [Tapinarof, 3,5-Dihydroxy-4-isopropyl-trans-stilbene]
Impetigo (0.5% BID): 0 n | Serious TEAEs (0.5% BID): 0 n | atopic dermatitis leading to study treatment discontinuation (0.5% BID): 7% | subjects with abnormal clinically significant ECGs at any post-screening visit (0.5% BID): 12% | Nasopharyngitis (0.5% BID, listed as GSK2894512): 4 n | Impetigo (0.5% QD): 0 n | Serious TEAEs (0.5% QD): 0 n | atopic dermatitis leading to study treatment discontinuation (0.5% QD): 2% | subjects with abnormal clinically significant ECGs at any post-screening visit (0.5% QD): 21% | Nasopharyngitis (0.5% QD, listed as GSK2894512): 1 n | subjects with abnormal clinically significant ECGs at any post-screening visit (1% BID): 30% | Nasopharyngitis (1% BID, listed as GSK2894512): 3 n | Acne (1% QD): 0 n | Dermatitis atopic (1% QD): 0 n | Discontinuous due to TEAEs (1% QD): 0 n | Impetigo (1% QD): 0 n | Serious TEAEs (1% QD): 0 n | subjects with abnormal clinically significant ECGs at any post-screening visit (1% QD): 24% | Nasopharyngitis (1% QD, listed as GSK2894512): 5 n | subjects permanently discontinuing treatment due to TEAEs [1]: 3% | subjects with mild TEAEs [1]: 50% | subjects with moderate TEAEs [1]: 10% | subjects with treatment-related TEAEs [1]: 17% | atopic dermatitis AE, median duration (active treatment groups): 12.5 days | atopic dermatitis AE, median time to onset (active treatment groups): 40.5 days | headache, median duration (active treatment groups): 2 days | headache, median time to onset (active treatment groups): 2 days | nasopharyngitis, median duration (active treatment groups): 9 days | nasopharyngitis, median time to onset (active treatment groups): 32 days | upper respiratory tract infection, median duration (active treatment groups): 16.5 days | upper respiratory tract infection, median time to onset (active treatment groups): 32.5 days | subjects permanently discontinuing treatment due to TEAEs [2]: 6% | subjects with mild TEAEs [2]: 41% | subjects with moderate TEAEs [2]: 14% | subjects with severe TEAEs [2]: 2% | subjects with treatment-related TEAEs [2]: 16% | subjects permanently discontinuing treatment due to TEAEs [3]: 3% | subjects with mild TEAEs [3]: 28% | subjects with moderate TEAEs [3]: 25% | subjects with severe TEAEs [3]: 3% | subjects with treatment-related TEAEs [3]: 14% | folliculitis, median start date (since Day 1) (all cases in active treatment groups): 17 days | subjects with elevations in liver chemistries (ALT/AST >2×ULN) (all in Tapinarof treatment groups): 6 subjects | treatment-related atopic dermatitis (pooled active groups): 1% | Acne (pooled active groups (n=165)): 4% | Impetigo (pooled active groups (n=165)): 1% | Nasopharyngitis (pooled active groups (n=165)): 8% | atopic dermatitis (worsening/flare) (pooled active groups (n=165)): 4% | atopic dermatitis leading to study treatment discontinuation (pooled active groups (n=165)): 2% | folliculitis (pooled active groups (n=165)): 11% | headache (pooled active groups (n=165)): 5% | treatment-related application site pain (pooled active groups (n=165)): 1% | treatment-related folliculitis (pooled active groups (n=165)): 5% | upper respiratory tract infection (pooled active groups (n=165)): 7% | subjects permanently discontinuing treatment due to TEAEs [4]: 4% | subjects with TEAEs [4]: 56% | subjects with mild TEAEs [4]: 32% | subjects with moderate TEAEs [4]: 22% | subjects with severe TEAEs [4]: 2% | subjects with treatment-related TEAEs [4]: 15% | subjects with TEAEs considered related to treatment (treatment groups pooled): 24 subjects | subjects with at least one AE (treatment groups pooled): 97 subjects | subjects with at least one TEAE (treatment groups pooled): 93 subjects
